Reference: patent publication US9302999B2, “Substituted triazoles as herbicides” (E. I. DU PONT DE NEMOURS AND COMPANY, priority 2012, dated 2016)
Like-named read-outs stand apart in the source and are kept apart here.

What was measured:
Format in all cases: in vivo
[1] = test system: corn (Zea mays); assay: Test A pre-/postemergence: corn; conditions: Zea mays, 240 h; for plant injury at 125 g/ha / plant injury at 500 g/ha: post-emergence, Postemergence, read-out: Corn plant response rating; for plant injury at 125 g/ha / Corn plant response rating (crop injury, 0 = no effect, 100 = complete kill) at 125 g/ha: 125 g ai/ha; for plant injury at 500 g/ha / Corn plant response rating (crop injury, 0 = no effect, 100 = complete kill) at 500 g/ha: 500 g ai/ha; for plant injury at 500 g/ha: visual rating on 0 to 100 scale (0 no effect, 100 complete control), approximately ten days; for Corn plant response rating (crop injury, 0 = no effect, 100 = complete kill) at 125 g/ha / Corn plant response rating (crop injury, 0 = no effect, 100 = complete kill) at 500 g/ha: pre-emergence, Preemergence
How it was run: (§1)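 Whole-plant greenhouse assay in loam/sand. Preemergence directed soil spray plus simultaneous postemergence spray (one- to two-leaf stage, 2–10 cm). Rated visually ~10 days later, 0 = no effect, 100 = complete control.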

[2] = test system: pigweed (Amaranthus retroflexus); assay: Test A pre-/postemergence: pigweed; conditions: Amaranthus retroflexus, 240 h; for pest or weed control at 125 g/ha: 125 g ai/ha; for pest or weed control at 500 g/ha: 500 g ai/ha
How it was run: as §1

[3] = test system: morningglory (Ipomoea spp.); assay: Test A pre-/postemergence: morningglory; conditions: Ipomoea, 240 h; for pest or weed control at 125 g/ha: 125 g ai/ha; for pest or weed control at 500 g/ha: 500 g ai/ha
How it was run: as §1

[4] = test system: barnyardgrass (Echinochloa crus-galli); assay: Test A pre-/postemergence: barnyardgrass; conditions: Echinochloa crus-galli, 240 h; for pest or weed control at 125 g/ha: 125 g ai/ha; for pest or weed control at 500 g/ha: 500 g ai/ha
How it was run: as §1

[5] = test system: wheat (Triticum aestivum); assay: Test A pre-/postemergence: wheat; conditions: Triticum aestivum, 240 h; for plant injury at 125 g/ha: 125 g ai/ha; for plant injury at 500 g/ha: 500 g ai/ha
How it was run: as §1

[6] = 0 to 100 scale, 0 is no effect, 100 is complete control
[7] = 0 to 100 scale (0 no effect, 100 complete control)
[8] = post-emergence, Postemergence, 0 to 100 scale, 0 is no effect, 100 is complete control, read-out: Pigweed plant response rating
[9] = post-emergence, Postemergence, visual rating on 0 to 100 scale (0 no effect, 100 complete control), approximately ten days, read-out: Pigweed plant response rating
[10] = pre-emergence, Preemergence, 0 to 100 scale (0 no effect, 100 complete control), read-out: Plant response rating, Pigweed
[11] = post-emergence, Postemergence, 0 to 100 scale, 0 is no effect, 100 is complete control, read-out: Morningglory plant response rating
[12] = post-emergence, Postemergence, visual rating on 0 to 100 scale (0 no effect, 100 complete control), approximately ten days, read-out: Morningglory plant response rating
[13] = pre-emergence, Preemergence, 0 to 100 scale (0 no effect, 100 complete control), read-out: Plant response rating, Morningglory
[14] = post-emergence, Postemergence, 0 to 100 scale, 0 is no effect, 100 is complete control, read-out: Barnyardgrass plant response rating
[15] = post-emergence, Postemergence, visual rating on 0 to 100 scale (0 no effect, 100 complete control), approximately ten days, read-out: Barnyardgrass plant response rating
[16] = pre-emergence, Preemergence, 0 to 100 scale (0 no effect, 100 complete control), read-out: Plant response rating, Barnyardgrass
[17] = post-emergence, Postemergence, 0 to 100 scale, 0 is no effect, 100 is complete control, read-out: Wheat plant response rating
[18] = post-emergence, Postemergence, visual rating on 0 to 100 scale (0 no effect, 100 complete control), approximately ten days, read-out: Wheat plant response rating
[19] = pre-emergence, Preemergence, 0 to 100 scale (0 no effect, 100 complete control), read-out: Plant response rating, Wheat

`CCc1nn(-c2ccc(C(F)(F)F)cc2)nc1Oc1cccc(OC(F)(F)F)c1` [Compound 125, 4-ethyl-5-[3-(trifluoromethoxy)phenoxy]-2-[4-(trifluoromethyl)phenyl]-2H-1,2,3-triazole] showed a plant injury at 125 g/ha [1, 6] of 20%, a plant injury at 500 g/ha [1] of 30% and a Corn plant response rating (crop injury, 0 = no effect, 100 = complete kill) at 125 g/ha ([1]; 0 to 100 scale where 0 is no effect and 100 is complete control) of 0%. It also gave a Corn plant response rating (crop injury, 0 = no effect, 100 = complete kill) at 500 g/ha [1, 7] of 0%, a pest or weed control at 125 g/ha [2, 8] of 90% and a pest or weed control at 500 g/ha [2, 9] of 100%. The pest or weed control at 125 g/ha ([2]; pre-emergence, Preemergence, 0 to 100 scale where 0 is no effect and 100 is complete control, read-out: Plant response rating, Pigweed) was 70%, the pest or weed control at 500 g/ha [2, 10] was 90% and the pest or weed control at 125 g/ha [3, 11] was 60%. It also gave a pest or weed control at 500 g/ha [3, 12] of 100%, a pest or weed control at 125 g/ha ([3]; pre-emergence, Preemergence, 0 to 100 scale where 0 is no effect and 100 is complete control, read-out: Plant response rating, Morningglory) of 0% and a pest or weed control at 500 g/ha [3, 13] of 10%. For the same compound, the pest or weed control at 125 g/ha [4, 14] was 0%, the pest or weed control at 500 g/ha [4, 15] was 30% and the pest or weed control at 125 g/ha ([4]; pre-emergence, Preemergence, 0 to 100 scale where 0 is no effect and 100 is complete control, read-out: Plant response rating, Barnyardgrass) was 30%. For the same compound, the pest or weed control at 500 g/ha [4, 16] was 50%, the plant injury at 125 g/ha [5, 17] was 0% and the plant injury at 500 g/ha [5, 18] was 20%. It also gave a plant injury at 125 g/ha ([5]; pre-emergence, Preemergence, 0 to 100 scale where 0 is no effect and 100 is complete control, read-out: Plant response rating, Wheat) of 0% and a plant injury at 500 g/ha [5, 19] of 0%.

For `COc1nn(-c2ccc(C(F)(F)F)cc2)nc1Cn1ccc(C(F)(F)F)n1` [Compound 17, 4-methoxy-2-[4-(trifluoromethyl)phenyl]-5-[[3-(trifluoromethyl)-1H-pyrazol-1-yl]methyl]-2H-1,2,3-triazole], the plant injury at 125 g/ha [1, 6] was 30%, the plant injury at 500 g/ha [1] was 30% and the Corn plant response rating (crop injury, 0 = no effect, 100 = complete kill) at 125 g/ha [1, 7] was 0%. The Corn plant response rating (crop injury, 0 = no effect, 100 = complete kill) at 500 g/ha [1, 6] was 20%, the pest or weed control at 125 g/ha [2, 8] was 90% and the pest or weed control at 500 g/ha [2, 9] was 100%. The pest or weed control at 125 g/ha [2, 10] was 90%, the pest or weed control at 500 g/ha ([2]; pre-emergence, Preemergence, 0 to 100 scale, 0 is no effect, 100 is complete control, read-out: Plant response rating, Pigweed) was 100% and the pest or weed control at 125 g/ha [3, 11] was 50%. The pest or weed control at 500 g/ha [3, 12] was 90%, the pest or weed control at 125 g/ha [3, 13] was 0% and the pest or weed control at 500 g/ha ([3]; pre-emergence, Preemergence, 0 to 100 scale, 0 is no effect, 100 is complete control, read-out: Plant response rating, Morningglory) was 50%. The pest or weed control at 125 g/ha [4, 14] was 30%, the pest or weed control at 500 g/ha [4, 15] was 90% and the pest or weed control at 125 g/ha [4, 16] was 30%. It also gave a pest or weed control at 500 g/ha ([4]; pre-emergence, Preemergence, 0 to 100 scale, 0 is no effect, 100 is complete control, read-out: Plant response rating, Barnyardgrass) of 90%, a plant injury at 125 g/ha [5, 17] of 20% and a plant injury at 500 g/ha [5, 18] of 40%. The plant injury at 125 g/ha [5, 19] was 0% and the plant injury at 500 g/ha ([5]; pre-emergence, Preemergence, 0 to 100 scale, 0 is no effect, 100 is complete control, read-out: Plant response rating, Wheat) was 0%.
